The values that follow come from patent US9834558B2, “Substituted bridged urea analogs as sirtuin modulators” (GLAXOSMITHKLINE LLC, priority 2013, dated 2017).

This assay deals with T1, SIRT1 (Homo sapiens, UniProt Q96EB6).
T1 sequence (Q96EB6 1-747): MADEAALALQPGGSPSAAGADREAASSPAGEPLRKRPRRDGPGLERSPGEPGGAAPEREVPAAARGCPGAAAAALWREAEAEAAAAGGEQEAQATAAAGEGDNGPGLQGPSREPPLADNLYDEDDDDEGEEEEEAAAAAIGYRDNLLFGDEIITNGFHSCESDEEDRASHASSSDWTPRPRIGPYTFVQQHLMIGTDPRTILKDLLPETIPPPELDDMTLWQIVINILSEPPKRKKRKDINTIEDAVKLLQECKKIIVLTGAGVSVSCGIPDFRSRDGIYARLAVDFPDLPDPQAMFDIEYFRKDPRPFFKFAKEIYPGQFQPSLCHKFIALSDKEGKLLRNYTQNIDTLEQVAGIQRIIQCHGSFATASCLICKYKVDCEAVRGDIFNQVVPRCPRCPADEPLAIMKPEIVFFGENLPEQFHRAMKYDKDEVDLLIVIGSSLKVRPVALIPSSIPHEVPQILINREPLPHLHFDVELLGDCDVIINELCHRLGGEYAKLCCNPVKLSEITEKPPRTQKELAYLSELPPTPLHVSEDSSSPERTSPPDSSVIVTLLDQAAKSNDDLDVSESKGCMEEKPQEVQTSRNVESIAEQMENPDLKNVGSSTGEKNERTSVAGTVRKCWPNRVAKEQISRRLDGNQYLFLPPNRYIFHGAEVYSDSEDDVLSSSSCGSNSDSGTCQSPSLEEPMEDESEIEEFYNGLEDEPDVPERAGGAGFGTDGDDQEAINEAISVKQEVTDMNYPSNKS
Kind of assay: Trp mass spectrometry assay of SIRT1 activation. The settings on record: for TRP Activity (EC1.5) / Emax: Trp peptide assay; for TRP Activity (EC1.5): EC1.5 = concentration that results in 150% activation of SIRT1; for Emax: maximum activity relative to control (100%), read-out: TRP MAX RESP (percent maximum fold activation). It is filed as biochemical. From the text: Mass spectrometry based assays were used to identify modulators of SIRT1 activity. […] The peptide was labeled with the fluorophore STMR (excitation 540 nm/emission 580 nm) at the C-terminus. The sequence of the peptide substrate was based on p53 with several modifications. In addition, the methionine residue naturally present in the sequence was replaced with the norleucine because the methionine may be susceptible to oxidation during synthesis and purification. The Trp based assay utilized a peptide having an amino acid residues as follows: Ac-R-H-K-K(Ac)-W-NH2 (SEQ ID NO: 2).
The Trp mass spectrometry assay was conducted as follows. 0.5 μM peptide substrate and 120 μM βNAD^+ were incubated with 10 nM SIRT1 for 25 minutes at 25° C. in a reaction buffer (50 mM HEPES pH 7.5, […], 1 mM DTT, 0.05% BSA). The SIRT1 protein was obtained by cloning the SirT1 gene into a T7-promoter containing vector, which was then expressed in BL21(DE3) bacterial cells and purified as described in further detail below. Test compound was added at varying concentrations to this reaction mixture and the resulting reactions were monitored. After the 25 minute incubation with SIRT1, 10 μL of 10% formic acid was added to stop the reaction. The resulting reactions were sealed and frozen for later mass spec analysis. The relative SIRT1 activity was then determined by measuring the amount of O-acetyl-ADP-ribose (OAADPR) formed (or, alternatively, the amount of deacetylated Trp peptide generated) by the NAD-dependent sirtuin deacetylation reaction in the presence of varying concentrations of the test compound versus control reactions lacking the test compound. The degree to which the test agent activated deacetylation by SIRT1 was expressed as EC1.5 (i.e., the concentration of compound required to increase SIRT1 activity by 50% over the control lacking test compound), and Percent Maximum Activation (i.e., the maximum activity relative to control (100%) obtained for the test compound).
This time point was the same as that used for test compounds and, within the linear range, the endpoint represents a change in velocity.
For the above assay, SIRT1 protein was expressed and purified as follows. The SirT1 gene was cloned into a T7-promoter containing vector and transformed into BL21(DE3). The protein was expressed by induction with 1 mM IPTG as an N-terminal His-tag fusion protein at 18° C. overnight and harvested at 30,000×g. Cells were lysed with lysozyme in lysis buffer (50 mM Tris-HCl, 2 mM Tris[2-carboxyethyl]phosphine (TCEP), 10 μM ZnCl2, 200 mM NaCl) and further treated with sonication for 10 min for complete lysis. The protein was purified over a Ni-NTA column (Amersham) and fractions containing pure protein were pooled, concentrated and run over a sizing column (Sephadex S200 26/60 global). The peak containing soluble protein was collected and run on an Ion-exchange column (MonoQ). Gradient elution (200 mM-500 mM NaCl) yielded pure protein. This protein was concentrated and dialyzed against dialysis buffer (20 mM Tris-HCl, 2 mM TCEP) overnight. The protein was aliquoted and frozen at −80° C. until further use.
“NT” means not tested; “ND” means not determinable.

The mark [1] stands for this setting: Trp mass spectrometry assay, EC1.5 = concentration of test compound that results in 150% activation of SIRT1.
[2] abbreviates: concentration giving 150% activation of SIRT1, Trp peptide substrate.
The mark [3] stands for this setting: Trp mass spectrometry assay, concentration of test compound giving 150% activation of SIRT1.

Consider `Cc1n[nH]c(C)c1-c1ccc2c(n1)N(C(=O)Nc1cccnc1)[C@H]1CCN2C1` [Example 525], for which, under setting [1], the “Tryp AVG EC1.5 (μM)” value is reported as “B (B (EC1.5 1-25 μM))”.

Take `C#CCCCNc1nccc(NC(=O)N2c3nc(-c4cccc(C5(C(F)(F)F)N=N5)c4)ccc3N3CC[C@H]2C3)n1` [Example 801]: the “Tryp AVG EC1.5 (μM)” value under setting [2] was “A (A (EC1.5<1 μM))”.

For `O=C(Nc1ccncn1)N1c2nc(C3CCCC(C(F)(F)F)C3)ccc2N2CC[C@H]1C2` (stereo partly shown) [Example 98], under “Trp peptide substrate, concentration giving 150% activation of SIRT1”, the “Tryp AVG EC1.5 (μM)” value is “B (B (EC1.5 1-25 μM))”.

As to `O=C(Nc1ccccn1)N1c2cc(-c3cccc(C(F)(F)F)c3)ccc2N2CC[C@H]1C2` [Example 785], under setting [2], the “Tryp AVG EC1.5 (μM)” value is “C (C (EC1.5>25 μM))”.

As to `O=C(NCCCN1CCOCC1)N1c2nc(-c3cccc(C(F)(F)F)c3)ccc2N2CC[C@H]1C2` [Example 612], under setting [1], the “Tryp AVG EC1.5 (μM)” value is listed as “B (B (EC1.5 1-25 μM))”.

For `O=C(Nc1ccccn1)N1c2nc(-c3cncc(F)c3)ccc2N2CCC1CC2` [Example 570], the “Tryp AVG EC1.5 (μM)” value under setting [1] is on record as “B (B (EC1.5 1-25 μM))”.

On to `N#Cc1cccc(-c2ccc3c(n2)N(C(=O)Nc2cccnn2)[C@H]2CCCN3C2)c1` [Example 381], for which the “Tryp AVG EC1.5 (μM)” value under setting [3] is given as “B (B (EC1.5 1-25 μM))”.

Consider `Cc1cc(-c2ccc3c(n2)N(C(=O)Nc2cnccn2)[C@H]2CCN3C2)cc(C)n1` [(9S)-5-(2,6-dimethylpyridin-4-yl)-N-(pyrazin-2-yl)-1,6,8-triazatricyclo[7.2.1.0^{2,7}]dodeca-2,4,6-triene-8-carboxamide], for which the “TRP Activity (EC1.5)” value is listed as “A (A (EC1.5<1 μM))” and the Emax was more than 150%.

With `O=C(Nc1ccncc1)N1c2nc(-c3cccc(Cl)c3)ccc2N2CCC[C@H]1C2` [Example 409], the “Tryp AVG EC1.5 (μM)” value under setting [3] is on record as “A (A (EC1.5<1 μM))”.

In the case of `Cc1cc(-c2ccc3c(n2)N(C(=O)N[C@H](C)c2ccccn2)[C@H]2CCN3C2)ccn1` [(9S)-5-(2-methylpyridin-4-yl)-N-[(1R)-1-(pyridin-2-yl)ethyl]-1,6,8-triazatricyclo[7.2.1.0 {2,7}]dodeca-2,4,6-triene-8-carboxamide], the “TRP Activity (EC1.5)” value is “C (C (EC1.5>25 μM))” and the Emax is less than 150%.

As to `O=C(Nc1cccnc1)N1c2nc(-c3cccc(Cl)c3)ccc2N2C[C@@H](O)[C@H]1C2` [Example 681], the “Tryp AVG EC1.5 (μM)” value under setting [2] was “B (B (EC1.5 1-25 μM))”.

With `Cc1cc(-c2ccc3c(n2)N(C(=O)Nc2ccc4[nH]ncc4c2)[C@H]2CCN3C2)ccn1` [(9S)-N-(1H-indazol-5-yl)-5-(2-methylpyridin-4-yl)-1,6,8-triazatricyclo[7.2.1.0 {2,7}]dodeca-2(7),3,5-triene-8-carboxamide], the “TRP Activity (EC1.5)” value was “A (A (EC1.5<1 μM))” and the Emax was more than 150%.

Take `Cc1ccc(-c2ccc3c(n2)N(C(=O)NCC(F)(F)F)[C@H]2CCN3C2)cn1` [(9S)-5-(6-methylpyridin-3-yl)-N-(2,2,2-trifluoroethyl)-1,6,8-triazatricyclo[7.2.1.0^{2,7}]dodeca-2(7),3,5-triene-8-carboxamide]: the “TRP Activity (EC1.5)” value is given as “B (B (EC1.5 1-25 μM))” and the Emax was more than 150%.

On to `CC(=O)O[C@@H]1CN2C[C@H]1N(C(=O)Nc1ccccn1)c1nc(-c3cccc(C(F)(F)F)c3)ccc12` [Example 602], for which the “Tryp AVG EC1.5 (μM)” value under setting [1] was “B (B (EC1.5 1-25 μM))”.

Turning to `CS(=O)(=O)c1cccc(-c2ccc3c(n2)N(C(=O)Nc2cnccn2)[C@H]2CCN3C2)c1` [Example 415], the “Tryp AVG EC1.5 (μM)” value under setting [3] is given as “A (A (EC1.5<1 μM))”.

On to `O=C(Nc1ccccn1)N1c2nc(-c3cccc(Cl)c3)ccc2N2CCC[C@H]1C2` [Example 387], for which, under setting [3], the “Tryp AVG EC1.5 (μM)” value was “A (A (EC1.5<1 μM))”.

As for `Cc1cc(-c2ccc3c(n2)N(C(=O)Nc2cnccn2)[C@H]2CCN3C2)cnc1C#N` [(9S)-5-(6-cyano-5-methylpyridin-3-yl)-N-(pyrazin-2-yl)-1,6,8-triazatricyclo[7.2.1.0 {2,7}]dodeca-2(7),3,5-triene-8-carboxamide], the “TRP Activity (EC1.5)” value is given as “B (B (EC1.5 1-25 μM))” and the Emax is more than 150%.

For the molecule `NCCCc1ccc(NC(=O)N2c3nc(-c4cccc(C(F)(F)F)c4)ccc3N3CCC[C@H]2C3)cc1-c1cnco1` [Example 767], the “Tryp AVG EC1.5 (μM)” value under setting [2] is on record as “A (A (EC1.5<1 μM))”.

For `O=C(Nc1cnccn1)N1c2nc(-c3ccc(OC(F)F)nc3)ccc2N2CC[C@H]1C2` [(9S)-5-[6-(difluoromethoxy)pyridin-3-yl]-N-(pyrazin-2-yl)-1,6,8-triazatricyclo[7.2.1.0 {2,7}]dodeca-2(7),3,5-triene-8-carboxamide], the “TRP Activity (EC1.5)” value was “B (B (EC1.5 1-25 μM))” and the Emax was more than 150%.

Take `CCc1nnc(NC(=O)N2c3nc(-c4cccc(C(F)(F)F)c4)ccc3N3CC[C@H]2C3)s1` [Example 647]: under setting [2], the “Tryp AVG EC1.5 (μM)” value was “A (A (EC1.5<1 μM))”.

Regarding `N#Cc1cccc(-c2ccc3c(n2)N(C(=O)Nc2cccnc2)[C@H]2CCCN3C2)c1` [Example 350], the “Tryp AVG EC1.5 (μM)” value under setting [3] is “A (A (EC1.5<1 μM))”.

`CC(C)(C)OC(=O)NCC#Cc1ccc(NC(=O)N2c3nc(-c4cccc(C(F)(F)F)c4)ccc3N3CC[C@H]2C3)cc1-c1cnco1` [Example 751]: the “Tryp AVG EC1.5 (μM)” value under setting [2] is recorded as “A (A (EC1.5<1 μM))”.

For the molecule `O=C(Nc1ccc(F)cn1)N1c2nc(-c3ccnc(N4CCC(C(F)(F)F)C4)c3)ccc2N2CC[C@H]1C2` (stereo partly shown) [Example 391], the “Tryp AVG EC1.5 (μM)” value under setting [3] is “A (A (EC1.5<1 μM))”.

In the case of `Cn1nc(C(F)(F)F)cc1-c1ccc2c(n1)N(C(=O)Nc1cnccn1)[C@H]1CCN2C1` [(9S)-5-[1-methyl-3-(trifluoromethyl)-1H-pyrazol-5-yl]-N-(pyrazin-2-yl)-1,6,8-triazatricyclo[7.2.1.0 {2,7}]dodeca-2(7),3,5-triene-8-carboxamide], the “TRP Activity (EC1.5)” value is “B (B (EC1.5 1-25 μM))” and the Emax is more than 150%.

Regarding `O=C(Nc1cnccn1)N1c2nc(N3CCNCC3)ccc2N2CC[C@H]1C2` [(9S)-5-(piperazin-1-yl)-N-(pyrazin-2-yl)-1,6,8-triazatricyclo[7.2.1.0 {2,7}]dodeca-2,4,6-triene-8-carboxamide], the “TRP Activity (EC1.5)” value is recorded as “C (C (EC1.5>25 μM))” and the Emax was less than 150%.

`Cc1cncc(-c2ccc3c(n2)N(C(=O)Nc2cncc(F)c2)[C@H]2CCCN3C2)c1` [Example 509]: the “Tryp AVG EC1.5 (μM)” value under setting [1] was “A (A (EC1.5<1 μM))”.

`O=C(Nc1ccncn1)N1c2nc(-c3cccc(C(F)(F)F)c3)ccc2N2C[C@@H](O)[C@H]1C2` [Example 669]: under setting [2], the “Tryp AVG EC1.5 (μM)” value is given as “B (B (EC1.5 1-25 μM))”.

In the case of `CN(C)c1cccc(-c2ccc3c(n2)N(C(=O)Nc2cnccn2)[C@H]2CCN3C2)c1` [(9S)-5-[3-(dimethylamino)phenyl]-N-(pyrazin-2-yl)-1,6,8-triazatricyclo[7.2.1.0 {2,7}]dodeca-2(7),3,5-triene-8-carboxamide], the “TRP Activity (EC1.5)” value is reported as “B (B (EC1.5 1-25 μM))” and the Emax is more than 150%.
